Patent publication US11421280B2 (DENOVO BIOPHARMA LLC, priority 2016, dated 2022)
Entries after “also recorded” stand apart in the source; their conditions may differ.

Columns and labels:
[1] = test system: VEGF induced angiogenesis; details: oral dosing, plasma exposure similar to human clinical trials; cited from earlier work
[2] = test system: human cancer xenografts (colorectal carcinomas, glioblastomas, diffuse large B-Cell lymphomas, Waldenstrom's macroglobulinemia, multiple myeloma); details: single-agent treatment; cited from earlier work
DLBCL patients [3] = experiment: S028 phase 2 DLBCL 1st line trial, enzastaurin in combination with R-CHOP; type: in vivo, human
Description: Thus, subgroup analysis was conducted using both IPI and rs309605 and rs309604.

[4] = test system: cultured cancer cells (colon, NSCLC, glioblastoma, diffuse large B-cell and cutaneous T-cell lymphoma, multiple myeloma, Waldenstrom's macroglobulinemia); details: cited from earlier work
GBM patients = experiment: S008 GBM phase 1/2 first line trial; type: in vivo, human
Text: FIG. 4A is a Kaplan-Meier plot showing time to overall survival in the AA+AB group and BB group. FIG. 4B is a Kaplan-Meier plot showing time to overall survival in the chromaturia group and non-chromaturia group.
The DNA samples from blood of GBM patients in S008 trials were used to genotype rs309605 by Taqman assay.

[5] = test system: other PKC isoforms (α, γ, ε); details: Graff et al. 2005; read-out: IC50s other PKC isoforms (α, γ, ε); cited from earlier work
DLBCL patients [6] = experiment: Prelude phase 3 DLBCL maintenance trial, survival analysis by chromaturia and rs309605 genotype; type: in vivo, human
Text: Prelude trial is a multicenter, phase 3, randomized, double-blind, placebo-controlled trial enrolled patients at high risk of recurrence following rituximab-cyclophosphamide, doxorubicin, vincristine, and prednisone (R-CHOP). […] Primary endpoint was DFS 3 years after the last patient entered treatment (FIG. 1A).
Unlike most oncology biomarker studies focusing on mutations or target protein overexpression in tumor cells, germline genetic polymorphisms also contribute to the various responses to the same drug in different patients.
For both rs309605 and rs309604, allele A represents T and allele B represents C. […] A p-value smaller than 5×10^−8 is usually considered the threshold for genome-wide significance.
To examine whether rs309605 is merely a prognostic biomarker, DNA samples from 238 patients from placebo control group were genotyped at rs309605 using the Taqman SNP assays.

[7] = enzastaurin arm, rs309605/rs309604
[8] = enzastaurin arm, rs309605/rs309604, p-value 5.75×10^−9

## Cn1cc(C2=C(c3cn(C4CCN(Cc5ccccn5)CC4)c4ccccc34)C(=O)NC2=O)c2ccccc21 [enzastaurin, 3-(1-methyl-1H-indol-3-yl)-4-[1-[1-(pyridin-2-ylmethyl)piperidin-4-yl]-1H-indol-3-yl]-1H-pyrrole-2,5-dione]
[1]
  VEGF induced angiogenesis: suppresses VEGF induced angiogenesis
[2]
  growth of human cancer xenografts: suppresses growth of multiple human cancer xenografts
DLBCL patients [3]; enzastaurin treatment arm, with R-CHOP
  survival, AA+AB vs BB genotype at rs309605: significant better survival
DLBCL patients [3]; general patient population, with R-CHOP
  overall survival, enzastaurin arm vs control arm: no significant difference
DLBCL patients [3]; patients AA+AB at rs309605 and rs309604 and IPI>2
  Progression Free (PFS) survival and overall survival, enzastaurin arm: superior efficacy
[4]; clinically relevant concentrations, suppresses phosphorylation of AKT, mTOR, p70S6K, S6, 4EBP1, CREB, GSK3β
  intracellular signaling through the PKC and PI3K/AKT pathways: blocks intracellular signaling through the PKC and PI3K/AKT pathways
[4]; cultured cancer cells
  tumor cell apoptosis: induces tumor cell apoptosis
  tumor cell proliferation: inhibits tumor cell proliferation
GBM patients
  overall survival, AA or AB genotype vs BB genotype at rs309605: better overall survival
  survival, chromaturia vs without chromaturia: significant improved survival
[5]
  IC50: 40 to 100 nM
DLBCL patients [6]; 177 enzastaurin treated patients without chromaturia
  overall survival, AA+AB vs BB genotype in patients without chromaturia: no significant difference in overall survival
DLBCL patients [6]; AA + AB (rs309605), Chrom
  Event per 1000 person-month: 0.65 per 1000 person-month
DLBCL patients [6]; AA + AB (rs309605), Chrom, N 82
  Number of events (OS): 3
DLBCL patients [6]; AA + AB (rs309605), Non-Chrom
  Event per 1000 person-month: 3.69 per 1000 person-month
DLBCL patients [6]; AA + AB (rs309605), Non-Chrom, N 158
  Number of events (OS): 27
DLBCL patients [6]; All types (AA, AB, BB), Chrom
  Event per 1000 person-month: 1.96 per 1000 person-month
DLBCL patients [6]; All types (AA, AB, BB), Chrom, N 95
  Number of events (OS): 10
DLBCL patients [6]; All types (AA, AB, BB), Non-Chrom
  Event per 1000 person-month: 4.83 per 1000 person-month
DLBCL patients [6]; All types (AA, AB, BB), Non-Chrom, N 187
  Number of events (OS): 41
DLBCL patients [6]; [7]
  number of patients who survived, AA+AB genotype: 209
  number of patients who survived, BB genotype: 22
DLBCL patients [6]; [8]
  number of patients who had events, AA+AB genotype: 31
  number of patients who had events, BB genotype: 22
DLBCL patients [6]; enzastaurin treated arm, rs309605 and rs309604
  overall survival, AA+AB genotype vs BB genotype: significantly improved survival; also recorded: significant longer overall survival
DLBCL patients [6]; interaction of genotype and chromaturia, p value=0.017
  overall survival, AA+AB genotype at rs309605 with chromaturia: best overall survival
DLBCL patients [6]; overall patient population, N=504 vs N=254, 500 mg daily oral
  overall survival / efficacy, enzastaurin arm vs placebo arm: failed to demonstrate statistically significant efficacy; also recorded: no significant difference
